Laboratory results: paper PMC6017062, “Probing the Inhibitor versus Chaperone Properties of sp^2-Iminosugars towards Human β-Glucocerebrosidase: A Picomolar Chaperone for Gaucher Disease” (Molecules : A Journal of Synthetic Chemistry and Natural …, 2018)
Numbering of substitutions follows the chain as printed. Read-outs that look alike come from different tables or passages of the source.

Tests used:
[1] = biological target: T1, human β-glucocerebrosidase (GCase) (Homo sapiens, UniProt P04062, R534H); assay: Purified recombinant human GCase inhibition in vitro; type: biochemical; details: for Ki: purified recombinant enzyme (Cerezyme), 4-MU glucopyranoside substrate
T1 construct: purchased Genzyme (Genzyme Japan, Tokyo, Japan) / Sanofi Genzyme, Cambridge, MA, USA Cerezyme
T1 sequence (P04062 40-536 R534H): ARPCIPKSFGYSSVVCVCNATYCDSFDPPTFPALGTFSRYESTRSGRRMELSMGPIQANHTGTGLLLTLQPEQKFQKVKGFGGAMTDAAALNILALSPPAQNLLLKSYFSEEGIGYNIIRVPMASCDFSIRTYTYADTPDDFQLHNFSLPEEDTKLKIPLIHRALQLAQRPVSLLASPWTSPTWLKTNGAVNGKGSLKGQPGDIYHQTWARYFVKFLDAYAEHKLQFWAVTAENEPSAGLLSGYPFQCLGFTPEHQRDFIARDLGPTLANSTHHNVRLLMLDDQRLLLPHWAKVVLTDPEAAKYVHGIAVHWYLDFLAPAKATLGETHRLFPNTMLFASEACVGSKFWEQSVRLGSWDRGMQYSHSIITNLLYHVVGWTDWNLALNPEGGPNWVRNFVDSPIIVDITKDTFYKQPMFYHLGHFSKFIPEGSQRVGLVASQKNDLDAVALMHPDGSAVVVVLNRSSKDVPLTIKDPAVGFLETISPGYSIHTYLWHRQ
Procedure: Comparative assessment of the inhibition abilities of 1–4 against human lysosomal glycosidases in cell lysates (in vitro enzyme assay; see Experimental Section) confirmed the selectivity pattern previously observed for the commercial enzymes: whereas GCase was responsive to μM concentrations of the sp^2-iminosugars, the activity of lysosomal α-glucosidase, α- and β-galactosidases, α- and β-mannosidases, and hexosaminidase was not affected at concentrations of up to 200 μM. The corresponding Ki values were determined at pH 7 and 5 using purified recombinant human GCase and 4-methylumbelliferone (4-MU)-conjugated […] as the substrate (Table 2).
GCase activities were determined as above using purified human GCase, obtained from Genzyme (Genzyme Japan, Tokyo, Japan) in 0.1 M citrate buffer at pH 5 or pH 7 and 4-methylumbelliferone (4-MU)-conjugated β-D-glucopyranoside as the substrate. The reactions were terminated by adding 0.2 mL of 0.2 M glycine sodium hydroxide buffer (pH 10.7). The liberated 4-methylumbelliferone was measured in a black-well plate with a Perkin Elmer Luminescence Spectrometer, Waltham, MA, USA (excitation wavelength: 340 nm; emission: 460 nm).

[2] = biological target: T2, GCase (Homo sapiens, UniProt P04062); assay: GCase activity in cultured healthy human fibroblasts; type: cell-based; details: 5 days culture
T2 construct: endogenous in cells; host or cells: normal human skin fibroblasts
T2 sequence (P04062 40-536): T1 sequence (P04062 40-536 R534H) with H495R
Procedure: For that purpose, cells were cultured for 5 days in the absence and in the presence of various concentrations of the compounds, then lysed, and the enzyme activity was determined using 4-methylumbelliferyl β-D-glucopyranoside as substrate. Higher GCase activities in the lysate indicate that larger amounts of the protein are present and that it is functional.
(§1) Normal and Gaucher disease patients’ skin fibroblasts were cultured in Dulbecco modified Eagle’s medium (WAKO, Richmond, VA, USA) supplemented with 10% fetal bovine serum (Nichirei Biosci. Inc., Tokyo, Japan) at 37 °C in 5% CO2. For measurement of chaperone activities, fibroblasts were plated onto 35 mm dishes at 50,000 cells per dish. After 24 h incubation, the medium with the indicated concentrations of compound was applied and cells were cultured for 96 h. Then, the lysates in 0.1% Triton-X100/distilled H2O were collected from the cells and assayed for lysosomal GCase as described above. To measure the cytotoxic effect of the compounds, normal human fibroblasts were plated onto 35 mm dishes at 15,000 cells per dish and incubated overnight. Then, the medium was changed with or without compounds. After 24 h incubation, the supernatant of the cells was collected and measured by the lactate dehydrogenase assay (WAKO, Richmond, VA, USA). All the cell lines used were tested for mycoplasma contamination before conducting the chaperone and toxicity assays.

[3] = pKa determination; type: physicochemical
[4] = biological target: T3, N188S/G183W mutant GCase (Homo sapiens, UniProt P04062, N227S); assay: Chaperone test in N188S/G183W type 3 Gaucher patient fibroblasts; type: cell-based; details: N188S/G183W Gaucher fibroblasts
T3 construct: endogenous in cells; host or cells: skin fibroblasts of N188S/G183W type 3 Gaucher patients
T3 sequence (P04062 40-536 N227S): T1 sequence (P04062 40-536 R534H) with N188S, H495R
Source text: To test the chaperoning capabilities, Gaucher fibroblasts from patients hosting the adult neuronopathic (type 3) Gaucher disease-associated N188S/G183W mutant GCase were employed. It is worth mentioning that the neuronopathic clinical subtypes of Gaucher disease remain currently at orphan status, given the inability of the recombinant enzyme used in enzyme replacement therapy or the glucosylceramide synthase inhibitor Zavesca® used in substrate reduction therapy to cross the blood–brain barrier. This mutation is located in the catalytic domain (domain III) of GCase and has been previously found to be responsive to sp^2-iminosugar-type chaperones. […] Yet, the activity trend as a function of the chaperone concentration was starkly different between them. Thus, the nonreducing representatives 3 and 4 reached the maximum chaperoning effect at 200 nM and as low as 2 nM concentration, respectively, as compared with 20 and 2 μM for the reducing homologues 1 and 2.
as §1

[5] = test system: L444P mutant GCase; design: method as in PMID 22512696; details: homozygous L444P Gaucher lymphoblasts; cited from earlier work
[6] = test system: L444P mutant GCase; details: homozygous L444P Gaucher fibroblasts; cited from earlier work
[7] = pH 5, read-out: Ki human GCase, pH 5
[8] = pH 7, read-out: Ki human GCase, pH 7

Row | SMILES | Ki [1, 7] | Ki [1, 8] | GCase activity in healthy human fibroblasts over the whole range of concentrations [2] | pKa [3] | concentration of maximum chaperoning effect [4] | also measured
1 | CCCCCCCC/N=C1/OC[C@@H]2[C@@H](O)[C@H](O)[C@@H](O)CN12 [Compound 3] | 6.3 ± 0.16 µM | 1.7 ± 0.066 µM |  | 9.3 | 0.2 µM | fold stronger GCase inhibition of nonreducing vs reducing partner ([1]; 3 vs 1, 4 vs 2): about 10 fold; GCase activity in lysates of healthy human fibroblasts at 20 μM ([2]; 20 μM): virtually full inhibition; GCase activity in lysates of healthy human fibroblasts at higher concentrations ([2]; concentrations higher than 20 nM): significantly inhibited; concentration over which chaperone/inhibitor balance is unfavorable (net decrease in mutant enzyme activity vs control) [4]: over 20 μM
2 | CCCCCCCCCN[C@H]1[C@H](O)[C@@H](O)[C@H](O)[C@@H](O)[C@@H]1OCCCCCCCCC [Compound 19, (1R,2S,3R,4S,5S,6R)-5-(nonylamino)-6-(nonyloxy)cyclohexane-1,2,3,4-tetraol] |  |  |  |  |  | mutant GCase activity enhancement at 10 pM [5]: 40%
3 | CCCCCCCCCC(=O)OC[C@H](C[C@H]1NC[C@@H](O)[C@H](O)[C@H]1O)OC(=O)CCCCCCCCC [Compound 23] |  |  |  |  |  | mutant GCase activity enhancement at 50 nM [6]: 100%

Now from value to compound, other results behind:

Row | Ki [1, 7] | Ki [1, 8] | GCase activity in healthy human fibroblasts over the whole range of concentrations [2] | pKa [3] | concentration of maximum chaperoning effect [4] | SMILES | also measured
4 | 54.4 ± 0.38 µM | 15.1 ± 0.97 µM | essentially unaltered | 8.9 | 20 µM | CCCCCCCCN=C1OCC2C(O)C(O)C(O)C(O)N12 (stereo not shown) [Compound 1] | 
5 | 1.05 ± 0.068 µM | 0.26 ± 0.013 µM | essentially unaltered | 8.3 | 2 µM | CCCCCCCCN=C1SCC2C(O)C(O)C(O)C(O)N12 (stereo not shown) [Compound 2] | fold enhancement of GCase inhibition potency upon replacement of O-6 by sulfur, pH 5 ([1]; pH 5, 2 vs 1, 4 vs 3): 52 fold; fold enhancement of GCase inhibition potency upon replacement of O-6 by sulfur, pH 7 ([1]; pH 7, 2 vs 1, 4 vs 3): 58 fold
